Source: patent US11491134B2, “Composition for inhibiting skin cell proliferation and/or anti-inflammation method for inhibiting skin cell proliferation and/or anti-inflammation and method for treating skin diseases and/or inflammatory diseases” (Industrial Technology Research Institute, priority 2019, dated 2022)

Tested on: keratinocytes, HaCaT cells
Assay: Inhibition rate on keratinocyte (HaCaT cell) proliferation, MTT
Type: cell-based
Conditions: Homo sapiens
Procedure: Dimethyl sulfoxide (DMSO) was used as a solvent to prepare apigenin test samples with different concentrations and luteolin test samples with different concentrations. 9 batches of experiments were performed, which respectively were Batch 1 to Batch 9. There were 6 independent experiments in each batch of experiments. In each independent experiment, inhibition rate of an apigenin test sample with a specific concentration on keratinocyte proliferation and inhibition rate of a luteolin test sample with a specific concentration on keratinocyte proliferation were determined, and inhibition rate of a combination of an apigenin test sample with the said specific concentration and a luteolin test sample with the said specific concentration on keratinocyte proliferation was determined. Between the independent experiments, concentrations of apigenin test samples used were different, and concentrations of luteolin test samples used were also different, however, mole ratios or weight ratios of apigenin test samples to luteolin test samples were the same. Moreover, between the batches of experiments, mole ratios or weight ratios of apigenin test samples to luteolin test samples were different. 5×10^3 keratinocytes, HaCaT cells, were inoculated in a 96-well culture plate and then placed in a 37° C. and 5% CO2 incubator for culturing overnight, and cell numbers at this time point (T0) was used as a benchmark for cell proliferation. After overnight culture, a test sample was added to the cells in the culture plate (refer to Table 1, and the cells of the control group were only treated with dimethyl sulfoxide) for co-culturing for 48 hours (T48). After that, the supernatant in the culture plate was removed. After the supernatant was removed, 50 μL MTT solution (0.5 mg/mL; Life Technologies Cat. No. M-6494) was added to cells and then the culture plate was placed in a 37° C. and 5% CO2 incubator for culturing for 1.5 hours. After that, 150 μL DMSO (J. T. Baker, Cat. No. 9224-03) was added to the cells in the culture plate and shaken for 5 minutes. Thereafter, the absorbance of each well of the culture plate was determined at 570 nm by a continuous wavelength microplate reader, and inhibition rate on cell proliferation was calculated through the following formula: Inhibition rate on cell proliferation=T48 Control group570 nm−T48 Experimental group570 nm)/(T48 Control group570 nm−T0 Control group570 nm) In this experiment, the synergistic effects of apigenin and luteolin were evaluated by CalcuSyn software (BIOSOFT). CalcuSyn software is an analysis software which is commonly used to analyze the drug dosage effect of single drug and multiple drugs at present. CalcuSyn software can be used to analyze drug complex interactions and automatically quantify various phenomena such as synergism and inhibition. CalcuSyn software can process the data of individual drugs and combination drugs with constant-ratio or on-constant-ratio, and can evaluate the interaction of combination drugs by the combination index (CI) (Chou and Talalay, Adv. Enzyme Regul. 22:27-55 (1984) calculated by CalcuSyn software. Calculation formula for the combination index is shown in the following: Combination index=C1/IC1+C2/IC2 C1 and C2 are the respective concentrations of the first compound and the second compound at which the activity of achieving a specific physiological or medical purpose is 50% (or 75%, or 90%) when the first compound and the second compound are analyzed in combination; IC1 and IC2 are the respective concentrations at which the activity of achieving a specific physiological or medical purpose of the first compound and the second compound is 50% (or 75%, or 90%) when the first compound and the second compound are independently analyzed. […]

O=c1cc(-c2ccc(O)cc2)oc2cc(O)cc(O)c12 [Apigenin, apigenin]
inhibition at 3.125 µM (Batch 1, apigenin 3.125 μM/0.84 μg/mL): 0% | inhibition at 6.25 µM (Batch 1, apigenin 6.25 μM/1.69 μg/mL): 0% | inhibition at 12.5 µM (Batch 1, apigenin 12.5 μM/3.38 μg/mL): 12.2% | inhibition at 25 µM (Batch 1, apigenin 25 μM/6.76 μg/mL): 29.2% | inhibition at 50 µM (Batch 1, apigenin 50 μM/13.51 μg/mL): 72.2% | inhibition at 100 µM (Batch 1, apigenin 100 μM/27.02 μg/mL): 103% | inhibition at 3.125 µM (Batch 2, apigenin 3.125 μM/0.84 μg/mL): 3.7% | inhibition at 6.25 µM (Batch 2, apigenin 6.25 μM/1.69 μg/mL): 5.8% | inhibition at 12.5 µM (Batch 2, apigenin 12.5 μM/3.38 μg/mL): 15.7% | inhibition at 25 µM (Batch 2, apigenin 25 μM/6.76 μg/mL): 40.7% | inhibition at 50 µM (Batch 2, apigenin 50 μM/13.51 μg/mL): 75.6% | inhibition at 100 µM (Batch 2, apigenin 100 μM/27.02 μg/mL): 105% | inhibition at 3.125 µM (Batch 3, apigenin 3.125 μM/0.84 μg/mL): 0% | inhibition at 6.25 µM (Batch 3, apigenin 6.25 μM/1.69 μg/mL): 5% | inhibition at 12.5 µM (Batch 3, apigenin 12.5 μM/3.38 μg/mL): 17.2% | inhibition at 25 µM (Batch 3, apigenin 25 μM/6.76 μg/mL): 39.7% | inhibition at 50 µM (Batch 3, apigenin 50 μM/13.51 μg/mL): 75.3% | inhibition at 100 µM (Batch 3, apigenin 100 μM/27.02 μg/mL): 103% | inhibition at 3.125 µM (Batch 4, apigenin 3.125 μM/0.84 μg/mL): 0% | inhibition at 6.25 µM (Batch 4, apigenin 6.25 μM/1.69 μg/mL): 0% | inhibition at 12.5 µM (Batch 4, apigenin 12.5 μM/3.38 μg/mL): 8.9% | inhibition at 25 µM (Batch 4, apigenin 25 μM/6.76 μg/mL): 31.9% | inhibition at 50 µM (Batch 4, apigenin 50 μM/13.51 μg/mL): 71.9% | inhibition at 100 µM (Batch 4, apigenin 100 μM/27.02 μg/mL): 103% | inhibition at 3.125 µM (Batch 5, apigenin 3.125 μM/0.84 μg/mL): 2.3% | inhibition at 6.25 µM (Batch 5, apigenin 6.25 μM/1.69 μg/mL): 11.1% | inhibition at 12.5 µM (Batch 5, apigenin 12.5 μM/3.38 μg/mL): 18.3% | inhibition at 25 µM (Batch 5, apigenin 25 μM/6.76 μg/mL): 36.2% | inhibition at 50 µM (Batch 5, apigenin 50 μM/13.51 μg/mL): 77.1% | inhibition at 100 µM (Batch 5, apigenin 100 μM/27.02 μg/mL): 110% | inhibition at 1.5625 µM (Batch 6, apigenin 1.5625 μM/0.42 μg/mL): 0% | inhibition at 3.125 µM (Batch 6, apigenin 3.125 μM/0.84 μg/mL): 0% | inhibition at 6.25 µM (Batch 6, apigenin 6.25 μM/1.69 μg/mL): 0% | inhibition at 12.5 µM (Batch 6, apigenin 12.5 μM/3.38 μg/mL): 1.3% | inhibition at 25 µM (Batch 6, apigenin 25 μM/6.76 μg/mL): 48.7% | inhibition at 50 µM (Batch 6, apigenin 50 μM/13.51 μg/mL): 72% | inhibition at 0.625 µM (Batch 7, apigenin 0.625 μM/0.17 μg/mL): 8% | inhibition at 1.25 µM (Batch 7, apigenin 1.25 μM/0.34 μg/mL): 8.3% | inhibition at 2.5 µM (Batch 7, apigenin 2.5 μM/0.68 μg/mL): 12.8% | inhibition at 5 µM (Batch 7, apigenin 5 μM/1.35 μg/mL): 8.7% | inhibition at 10 µM (Batch 7, apigenin 10 μM/2.70 μg/mL): 24.7% | inhibition at 20 µM (Batch 7, apigenin 20 μM/5.40 μg/mL): 40.4% | inhibition at 0.3125 µM (Batch 8, apigenin 0.3125 μM/0.08 μg/mL): 4.3% | inhibition at 0.625 µM (Batch 8, apigenin 0.625 μM/0.17 μg/mL): 9% | inhibition at 1.25 µM (Batch 8, apigenin 1.25 μM/0.34 μg/mL): 10.1% | inhibition at 2.5 µM (Batch 8, apigenin 2.5 μM/0.68 μg/mL): 8.9% | inhibition at 5 µM (Batch 8, apigenin 5 μM/1.35 μg/mL): 10.4% | inhibition at 10 µM (Batch 8, apigenin 10 μM/2.70 μg/mL): 18.3% | inhibition at 0.15625 µM (Batch 9, apigenin 0.15625 μM/0.04 μg/mL): 1.4% | inhibition at 0.3125 µM (Batch 9, apigenin 0.3125 μM/0.08 μg/mL): 3.9% | inhibition at 0.625 µM (Batch 9, apigenin 0.625 μM/0.17 μg/mL): 2.1% | inhibition at 1.25 µM (Batch 9, apigenin 1.25 μM/0.34 μg/mL): 4.6% | inhibition at 2.5 µM (Batch 9, apigenin 2.5 μM/0.68 μg/mL): 3.2% | inhibition at 5 µM (Batch 9, apigenin 5 μM/1.35 μg/mL): 3.2%
